Values quoted from earlier work, collected in patent US20050074468A1, “Topical compositions containing nonimmunosuppressive cyclosporin derivatives for treating hair loss” (priority 2001, published 2005).

Tested on: mouse's back
Details: relative to minoxidil

Cyclosporin A
hair regrowth effect superior to minoxidil: about 100 times
